Assay results: PMC12304285 (British Journal of Cancer, 2025)
“Also recorded” adds a separate entry of the source.

Assays:
[1] = Plasma and urine pharmacokinetics in patients; assay type: in vivo, human
Protocol: Urine PK samples were collected at Cycle 0, Day 1 and at Cycle 1, Day 8 at the following timepoints: pre-dose (Cycle 0, Day 1 only), 0 to 8 h post dose and 8 to 24 h post-dose. […] Maximum observed concentration (Cmax) and time to reach Cmax (tmax) were determined directly by inspection of the concentration-time profiles. Terminal half-life slope (t½λz) was calculated as ln2/terminal elimination rate constant (λz). Area under the plasma concentration time curve from zero to last measurable concentration (AUClast) was calculated using the linear up/log down trapezoidal rule. AUClast was extrapolated to infinity using λz to obtain overall exposure (AUCinf). The amount of drug excreted unchanged in the urine (e.g. Ae0-t, Aeτ) for any given dosing interval was determined by multiplying the concentration of drug determined in the urine sample by the volume of the sample collected in that period.

[2] = system: PBMCs collected from patients; assay: iMRM-MS of DDR proteins in PBMCs collected from patients on treatment; assay type: in vivo, human; conditions: doses up to 40 mg
Protocol: Prior to assessing clinical trial samples, PBMCs from healthy volunteers were treated ex vivo to determine biomarkers modulated by AZD7648. […] Samples were pooled and analysed by iMRM-MS. During the clinical trial, patient blood samples were collected during cycle 1 (day 1 and day 8), cycle 2 (day 1) and at the end of treatment and were analysed by iMRM-MS [20–23]. On-treatment tumour biopsies were optional in the trial protocol and none were collected, so tumour PD studies were not conducted.
Preparation of Clinical PBMCs and iMRM analysis
Blood from patients was drawn into 8 mL Vacutainer CPT tubes (BD) before treatment, 2-8h post dose at C1D1, C1D8, C2D1 and at discontinuation.
After inverting the tube 8 -10 times, it was centrifuged and the PBMC layer transferred into a new tube, washed once with ice cold PBS, centrifuged again to obtain a pellet which was then […]
PBMC pellets were lysed with 8M Urea supplemented with proteases and phosphatases inhibitors, sonicated, clarified by centrifugation and quantified with Micro -BCA assay (Thermo - […]
The samples were quality checked by SDS -PAGE followed by silver staining to evaluate the complexity of the obtained protein extract and assess the presence of most common blood contaminants (hemoglobulin and albumin). […]

Cc1cc2ncnn2cc1Nc1ncc2c(n1)n(C1CCOCC1)c(=O)n2C [AZD7648, 7-Methyl-2-[(7-methyl[1,2,4]triazolo[1,5-a]pyridin-6-yl)amino]-9-(tetrahydro-2H-pyran-4-yl)-7,9-dihydro-8H-purin-8-one]
exposure versus dose ([1]; 5 to 160 mg BID): increased in a broadly linear manner | fraction excreted unchanged in urine ([1]; human, in vivo): 5–10 % of the total administered dose | AUC(0-inf) ([1]; human, plasma, oral, 80 mg BID cohort, Cycle 0 Day 1 single dose, read-out: geoMean AUCinf): 25.2 µM·h | Cmax ([1]; human, plasma, oral, 80 mg BID cohort, Cycle 0 Day 1 single dose, read-out: geoMean Cmax): 2460 nM | Tmax ([1]; human, plasma, 5 to 160 mg, oral): 1 to 2 h | drug exposure achieved ([1]; one patient at the 80 mg dose level): > 1 µM | activity on DDR protein markers in patient PBMCs [2]: did not show any activity; also recorded: not biologically active
